Assay results reported in patent publication US20260132152A1, “SOLID FORMS OF AN ORALLY-DELIVERED BETA-LACTAMASE INHIBITOR AND USES THEREOF” (Venatorx Pharmaceuticals, Inc., priority 2019, published 2026).
Values after ≈ are worked out from the molar mass of the structure shown. Where two headings read alike, the source gives them in different places. Values belong to the molecule of their own block, whether it stands above or below them.

Legend:
Format in all cases: physicochemical
[1] = Exposure to elevated RH (75%, 85%, 97%) at room temperature
Protocol: Samples of Compound 1-ethanolate Form A were exposed to elevated RH (75%, 85% and 97%) at room temperature for approximately 3 hours and 24 hours (Table 8).

[2] = Dynamic vapor sorption (DVS) analysis, 5% RH to 95% RH and back to 5% RH at 10% RH increments; conditions: for State of sample after DVS analysis: after 5-95-5% RH cycle
Protocol: Moisture sorption/desorption data were collected on a VTI SGA-100 Vapor Sorption Analyzer. NaCl and PVP were used as calibration standards. Samples were not dried prior to analysis. Sorption and desorption data were collected over a range from 5% to 95% RH at 10% RH increments under a nitrogen purge (RH=relative humidity). The equilibrium criterion used for analysis was less than 0.0100% weight change in 5 minutes with a maximum equilibration time of 3 hours. Data were not corrected for the initial moisture content of the samples.
DVS analysis of Compound 1-ethanolate Form A was conducted from 5% relative humidity (RH) to 95% RH and back to 5% RH at 10% RH increments (FIG. 7). […] A loss of 1.8 wt % was observed between 55% RH and 65% RH possibly due to water displacing ethanol. After 65% RH, the sample gained 3.8 wt % between 65% RH and 95% RH. […] Weight loss (˜7.6 wt %) was observed between 95% RH and 5% RH (i.e., desorption). After DVS analysis, it was noted that the sample had deliquesced.
DVS analysis of Compound 1-ethanolate Form B (with minor Form A) was conducted from 5% RH to 95% RH and back to 5% RH at 10% RH increments (FIG. 12). The DVS isotherm of Form B is qualitatively similar to that of Form A. Form B lost 0.2 wt % upon equilibration at ˜5% RH. […] A weight loss of 1.1% was observed between 45% RH and 55% RH, possibly due to the displacement of the ethanol with water. After 55% RH, the sample gained 3.3 wt % between 55% RH and 95% RH. […] Weight loss (˜5.8 w1%) was observed during desorption from 95% RH to 5% RH.

[3] = Solvent-mediated interconversion slurries with seeds of Form A and Form B; conditions: slurries in 3% DCM in heptane and 5% EtOH in heptane, room temperature, ~2 weeks, XRPD
Protocol: Saturated solutions of Compound 1-ethanolate were prepared in 3% DCM in heptane and 5% EtOH in heptane.
Approximately equal amounts of Form A, and Form B (containing a minor amount of Form A) were added to the filtered saturated solutions, and the suspensions were slurried at room temperature for ˜2 weeks, and the isolated solids were observed by polarized light microscopy (PLM) and analyzed by XRPD.

[4] = Separate DVS analysis with stepped increase in relative humidity, 0% RH to 60% RH, 4 h per step, then XRPD; conditions: for Mass change in stepped DVS: at humidities higher than 40% RH, loss of ethanol from the boronate ester complex; for Mass increase in stepped DVS: from 0% RH to 40% RH; for Retention of crystal structure (XRPD after stepped DVS): up to 60% r.h.
Protocol: A second set of DVS experiments were conducted using a stepped method from 0% RH to 60% RH with steps of 10% RH and four hours of equilibration at each humidity value. […] The samples were placed on an aluminum holder and allowed to equilibrate at 0% RH before starting the following predefined humidity program; hold for 4 h at 0% RH, increase humidity by a step of 10% RH, hold for 4 h. repeat the above two steps five times until a value of 60% RH has been reached. The samples were then analyzed for crystallinity using the second set of XRPD conditions.

[5] = Visual solubility estimates by aliquot addition at ambient temperature
Protocol: Visual solubility estimates for Compound 1-ethanolate Form A were determined in a variety of solvents and solvent mixtures using an aliquot addition method to aid in experimental design.

[6] = Mass spectrometric analysis of conversion of the ethanolate to Compound 1 in water; conditions: in the presence of water, high-resolution MS
Protocol: High resolution mass spectra from 50 to 3000 Da were collected with a Bruker Maxis —Plus QTOF mass spectrometer using an electrospray ionization source. The instrument was controlled and data analyzed using Bruker Compass v.4.4 software. The mass spectrometer was calibrated immediately prior to analyses and was operated in positive ionization mode using an Electrospray Ionization (ESI) source. Samples were prepared by dilution in absolute ethanol (without denaturants) or HPLC grade water prior to direct infusion into the ion source.
Mass spectrometric (MS) analyses were performed to confirm the structure of Compound 1-ethanolate Form A, and evaluate the ability of EtOH to dissociate from Compound 1-ethanolate in water. Compound 1-ethanolate Form A, and an amorphous preparation of ((2-ethylbutanoyl)oxy)methyl (R)-2-hydroxy-3-propionamido-3,4-dihydro-2H-benzo[e][1,2]oxaborinine-8-carboxylate were diluted in absolute EtOH or water and analyzed by high-resolution mass spectrometry. A sample of amorphous ((2-ethylbutanoyl)oxy)methyl (R)-2-hydroxy-3-propionamido-3.4-dihydro-2H-benzo[e]|1.2]oxaborinine-8-carboxylate, dissolved in absolute EtOH, was spiked with water prior to analysis. […] The exact mass observed for sodiated Compound 1-ethanolate was 442.2007 (difference=1.4 ppm vs. theoretical: C21H30BNO7Na: 442.2013 Da). […]

Observation on exposure to elevated RH ([1]; 75% RH, after 3 hours): no deliquescence
Observation on exposure to elevated RH ([1]; 75% RH, after 24 hours): began deliquescing
Observation on exposure to elevated RH ([1]; 85% RH, after 3 hours): appeared wet with solids present
Observation on exposure to elevated RH ([1]; 85% RH, after 24 hours): deliquesced
Observation on exposure to elevated RH ([1]; 97% RH, after 3 hours): deliquescence was observed
Observation on exposure to elevated RH ([1]; 97% RH, after 24 hours): deliquesced
State of sample after DVS analysis [2]: deliquesced
Weight loss in DVS (desorption) ([2]; between 95% RH and 5% RH): ~7.6 wt %
Weight % chg ([2]; desorption, elapsed 731.2 min, sample RH 85.19%, 25.19 °C): 0.633%
Weight % chg ([2]; desorption, elapsed 918.9 min, sample RH 74.98%, 25.19 °C): −0.694%
Weight % chg ([2]; desorption, elapsed 1106.5 min, sample RH 65.14%, 25.19 °C): −1.716%
Weight % chg ([2]; desorption, elapsed 1296.4 min, sample RH 54.99%, 25.19 °C): −2.592%
Weight % chg ([2]; desorption, elapsed 1483.9 min, sample RH 45.11%, 25.19 °C): −3.308%
Weight % chg ([2]; desorption, elapsed 1671.4 min, sample RH 35.03%, 25.19 °C): −3.916%
Weight % chg ([2]; desorption, elapsed 1859.0 min, sample RH 25.06%, 25.19 °C): −4.432%
Weight % chg ([2]; desorption, elapsed 2044.7 min, sample RH 14.87%, 25.19 °C): −4.883%
Weight % chg ([2]; desorption, elapsed 2228.6 min, sample RH 5.67%, 25.19 °C): −5.275%
Hygroscopicity ([2]; from 5-55% RH): non-hygroscopic
Weight gain in DVS ([2]; sorption, between 5% RH and 55% RH): ~0.3 wt %
Weight loss in DVS ([2]; sorption, between 55% RH and 65% RH, possibly water displacing ethanol): 1.8 wt %
Weight gain in DVS ([2]; sorption, between 65% RH and 95% RH): 3.8 wt %
Weight % chg ([2]; sorption, elapsed 21.1 min, sample RH 5.15%, 25.19 °C): −0.043%
Weight % chg ([2]; sorption, elapsed 39.7 min, sample RH 14.86%, 25.19 °C): −0.003%
Weight % chg ([2]; sorption, elapsed 51.8 min, sample RH 24.90%, 25.20 °C): 0.051%
Weight % chg ([2]; sorption, elapsed 64.8 min, sample RH 34.83%, 25.19 °C): 0.120%
Weight % chg ([2]; sorption, elapsed 78.3 min, sample RH 44.87%, 25.19 °C): 0.214%
Weight % chg ([2]; sorption, elapsed 91.2 min, sample RH 54.86%, 25.18 °C): 0.316%
Weight % chg ([2]; sorption, elapsed 281.1 min, sample RH 65.03%, 25.18 °C): −1.494%
Weight % chg ([2]; sorption, elapsed 294.7 min, sample RH 74.65%, 25.20 °C): −1.170%
Weight % chg ([2]; sorption, elapsed 356.0 min, sample RH 84.85%, 25.19 °C): 0.451%
Weight % chg ([2]; sorption, elapsed 543.7 min, sample RH 94.83%, 25.19 °C): 2.311%
Weight % chg ([2]; start, elapsed 0.1 min, sample RH 0.99%, 25.18 °C): 0.000%
Thermodynamically stable polymorph [3]: the stable form at room temperature
Thermodynamically stable polymorph ([3]; listed as Polymorph form A): thermodynamically stable
Mass change in stepped DVS [4]: a decrease in mass was observed
Mass increase in stepped DVS [4]: 0.3 wt, -%
solubility ([5]; Cyclohexane): <1 mg/mL
solubility ([5]; Heptane): <1 mg/mL
solubility ([5]; organic solvent or mixture, thermodynamic from solid, ACN, read-out: Solubility): > 66 mg/mL
solubility ([5]; organic solvent or mixture, thermodynamic from solid, Acetone, read-out: Solubility): 34 mg/mL (≈ 81.1 mM)
solubility ([5]; organic solvent or mixture, thermodynamic from solid, Anisole, read-out: Solubility): 35 mg/mL (≈ 83.5 mM)
solubility ([5]; organic solvent or mixture, thermodynamic from solid, Chloroform, read-out: Solubility): 36 mg/mL (≈ 85.9 mM)
solubility ([5]; organic solvent or mixture, thermodynamic from solid, Cyclohexane, read-out: Solubility): < 1 mg/mL
solubility ([5]; organic solvent or mixture, thermodynamic from solid, Cyclohexane:EtOAc 3:1 by volume, read-out: Solubility): 4 mg/mL (≈ 9.54 mM)
solubility ([5]; organic solvent or mixture, thermodynamic from solid, Cyclohexane:EtOH 90:10 by volume, read-out: Solubility): 17 mg/mL (≈ 40.5 mM)
solubility ([5]; organic solvent or mixture, thermodynamic from solid, DCM, read-out: Solubility): 34 mg/mL (≈ 81.1 mM)
solubility ([5]; organic solvent or mixture, thermodynamic from solid, DMF, read-out: Solubility): > 63 mg/mL
solubility ([5]; organic solvent or mixture, thermodynamic from solid, DMSO, read-out: Solubility): > 71 mg/mL
solubility ([5]; organic solvent or mixture, thermodynamic from solid, Diethyl Ether, read-out: Solubility): 9 mg/mL (≈ 21.5 mM)
solubility ([5]; organic solvent or mixture, thermodynamic from solid, EtOAc, read-out: Solubility): > 68 mg/mL
solubility ([5]; organic solvent or mixture, thermodynamic from solid, EtOH, read-out: Solubility): > 68 mg/mL
solubility ([5]; organic solvent or mixture, thermodynamic from solid, Heptane, read-out: Solubility): < 1 mg/mL
solubility ([5]; organic solvent or mixture, thermodynamic from solid, Heptane:MEK 2:1 by volume, read-out: Solubility): 22 mg/mL (≈ 52.5 mM)
solubility ([5]; organic solvent or mixture, thermodynamic from solid, IPA, read-out: Solubility): 34 mg/mL (≈ 81.1 mM)
solubility ([5]; organic solvent or mixture, thermodynamic from solid, IPOAc, read-out: Solubility): > 66 mg/mL
solubility ([5]; organic solvent or mixture, thermodynamic from solid, MEK, read-out: Solubility): 37 mg/mL (≈ 88.2 mM)
solubility ([5]; organic solvent or mixture, thermodynamic from solid, MTBE, read-out: Solubility): 22 mg/mL (≈ 52.5 mM)
solubility ([5]; organic solvent or mixture, thermodynamic from solid, Nitromethane, read-out: Solubility): > 68 mg/mL
solubility ([5]; organic solvent or mixture, thermodynamic from solid, TFE, read-out: Solubility): > 66 mg/mL
solubility ([5]; organic solvent or mixture, thermodynamic from solid, THF, read-out: Solubility): > 64 mg/mL
solubility ([5]; organic solvent or mixture, thermodynamic from solid, Toluene, read-out: Solubility): 33 mg/mL (≈ 78.7 mM)
solubility ([5]; organic solvent or mixture, thermodynamic from solid, Xylene, read-out: Solubility): 17 mg/mL (≈ 40.5 mM)
Structure (SMILES): CCOB1Oc2c(cccc2C(=O)OCOC(=O)C(CC)CC)C[C@@H]1NC(=O)CC [Compound 1-ethanolate Form A, ((2-ethylbutanoyl)oxy)methyl (R)-2-ethoxy-3-propionamido-3,4-dihydro-2H-benzo[e][1,2]oxaborinine-8-carboxylate]
Retention of crystal structure (XRPD after stepped DVS) [4]: retained its predominant crystal structure for at least four hours

State of sample after DVS analysis [2]: appeared to have deliquesced
Weight loss in DVS (desorption) ([2]; desorption from 95% RH to 5% RH): ~5.8 w1%
Weight loss upon equilibration ([2]; equilibration at ~5% RH): 0.2 wt %
Weight gain in DVS ([2]; sorption, between 5% RH and 45% RH): ~0.5 wt %
Weight loss in DVS ([2]; sorption, between 45% RH and 55% RH, possibly displacement of ethanol with water): 1.1%
Weight gain in DVS ([2]; sorption, between 55% RH and 95% RH): 3.3 wt %
Mass change in stepped DVS [4]: a decrease in mass was observed
Mass increase in stepped DVS [4]: 0.4 wt, -%
Structure (SMILES): CCOB1Oc2c(cccc2C(=O)OCOC(=O)C(CC)CC)C[C@@H]1NC(=O)CC [Compound 1-ethanolate Form B, ((2-ethylbutanoyl)oxy)methyl (R)-2-ethoxy-3-propionamido-3,4-dihydro-2H-benzo[e][1,2]oxaborinine-8-carboxylate]
Retention of crystal structure (XRPD after stepped DVS) [4]: retained its predominant crystal structure for at least four hours

Structure (SMILES): CCOB1Oc2c(cccc2C(=O)OCOC(=O)C(CC)CC)C[C@@H]1NC(=O)CC [Compound 1-ethanolate, ((2-ethylbutanoyl)oxy)methyl (R)-2-ethoxy-3-propionamido-3,4-dihydro-2H-benzo[e][1,2]oxaborinine-8-carboxylate]
Conversion to the free boronic acid (Compound 1) [6]: rapidly converted to the free boronic acid
